# Laboratory results: ChEMBL document CHEMBL4177745, “2-Methyltetrahydro-3-benzazepin-1-ols - The missing link in SAR of GluN2B selective NMDA receptor antagonists” (Bioorg Med Chem, 2018)
# pKi: −log10 of the molar value.
# Assays:
# [1] = molecular target: T1, Sigma intracellular receptor 2 (Rattus norvegicus, UniProt Q5U3Y7); test: Displacement of [3H]-DTG from sigma 2 receptor in rat liver membranes after 120 mins by scintillation counting analysis; type: cell membranes, Membrane
# T1 sequence (Q5U3Y7 whole entry): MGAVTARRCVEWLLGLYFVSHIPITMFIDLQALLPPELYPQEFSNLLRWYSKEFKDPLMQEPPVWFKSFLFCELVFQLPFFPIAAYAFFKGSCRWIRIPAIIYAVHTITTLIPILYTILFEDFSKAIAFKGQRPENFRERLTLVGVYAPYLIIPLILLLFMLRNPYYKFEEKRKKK
# [2] = molecular target: Sigma non-opioid intracellular receptor 1 (Cavia porcellus, UniProt Q60492); test: Displacement of [3H]-(+)-Pentazocine from sigma 1 receptor in guinea pig brain cortex membranes after 120 mins by scintillation counting analysis; type: cell membranes
# Sigma non-opioid intracellular receptor 1, sequence (Q60492 whole entry): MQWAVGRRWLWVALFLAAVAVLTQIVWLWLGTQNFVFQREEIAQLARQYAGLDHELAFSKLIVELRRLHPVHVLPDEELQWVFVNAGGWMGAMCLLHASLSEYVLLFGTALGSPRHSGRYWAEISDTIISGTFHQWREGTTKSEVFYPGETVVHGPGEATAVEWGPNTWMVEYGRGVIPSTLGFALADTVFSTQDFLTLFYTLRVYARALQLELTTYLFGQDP
# [3] = Displacement of [3H]-ifenprodil from recombinant human GluN1a/GluN2B expressed in L(tk-) cell membranes after 120 mins by scintillation counting analysis
# [4] = Selectivity ratio of Ki for recombinant human GluN1a/GluN2B expressed in L(tk-) cell membranes to Ki for sigma 1 receptor in guinea pig brain cortex membranes; type: cell-based
pKi [1],pKi [2],SMILES,pKi [3],Ratio Ki [4]
7.22,8.00,C[C@@H]1[C@H](O)c2ccccc2CCN1CCCCCc1ccccc1 (relative stereo),7.25,5
6.83,–,C[C@@H]1[C@H](O)c2ccc(O)cc2CCN1CCCCc1ccccc1,7.77,–
–,–,CC(C(O)c1ccc(O)cc1)N1CCC(Cc2ccccc2)CC1 (centres undefined) [IFENPRODIL],8.00,–
6.90,7.34,C[C@@H]1[C@H](O)c2ccccc2CCN1CCCCc1ccccc1 (relative stereo),6.60,5
7.12,6.17,OC1CN(CCCCc2ccccc2)CCc2ccccc21 (centres undefined),7.14,–
< 5.00,–,Oc1ccc2c(c1)CCN(CCCCc1ccccc1)CC2O (centres undefined),7.85,–
6.05,6.58,C[C@@H]1[C@H](O)c2ccccc2CCN1Cc1ccccc1 (relative stereo),6.59,–
